Data taken from publication PMC6478823, “A suite of phenotypic assays to ensure pipeline diversity when prioritizing drug-like Cryptosporidium growth inhibitors” (Nature Communications, 2019).
Where “and” joins values, the source holds several entries; their conditions need not be identical. Equal values may be shown once. Read-outs that look alike come from different tables or passages of the source.

Tests used:
[1] = system: C. parvum; experiment: 48 h Cryptosporidium growth inhibition assay; assay type: cell-based, Cryptosporidium parvum; conditions: for EC90: compound added 3 h post-infection, read at 48 h; for 0 - 48 h V. villosa lectin (asexual): Mean % Inhibition (parasites): replicates 1-2
Excerpt: As a first step in developing specific Cryptosporidium mode of action assays, we conducted a series of light microscopy time-lapse and transmission electron microscopy (TEM) time course experiments in order to precisely define C. parvum development within the HCT-8 cell culture system. […] This synchronicity was exploited by modifying a previously developed high-content microscopy assay. These assay modifications enabled the evaluation of several key events within the life cycle: host cell invasion, intracellular replication, host cell egress and establishment of new parasitophorous vacuoles, and sexual differentiation. […] Since the methods all used automated liquid handling, imaging, and image analysis, the assay methods all incorporated nuclear staining to monitor host cell numbers and enable recognition of HCT-8 cell monolayer damage, for example as an artifact from a malfunctioning plate washer or from unanticipated cytotoxicity of the compounds.
Human ileocecal adenocarcinoma (HCT-8) cells were purchased from ATCC (catalog# CCL-244) and cultured in ATCC modified RPMI-1640 medium (Gibco, catalog# A10491–01), supplemented with 10% heat-inactivated fetal bovine serum (Sigma-Aldrich, catalog# 12306C) and 120 U/mL penicillin and 120 μg/mL streptomycin (Gibco, catalog# 15140-122) (culture media). […] For all experiments, HCT-8 cells between passages 9 and 39 were used. C. parvum (Iowa isolate) oocysts were purchased from Bunchgrass Farm (Deary, ID), stored at 4 °C and used within 5 months of collection from an infected calf. To induce excystation, oocysts were first treated with 10 mM hydrochloric acid for 10 min at 37 °C, spun at 14,000×g for 4.5 min at room temperature, treated with 2 mM sodium taurocholate for 10 min at 16 °C, spun as before, and resuspended in culture media for infection.
A modification of a previously reported immunofluorescence assay was used to determine the EC50 and EC90 of compounds[13]. HCT-8 cells were grown to ≥ 90% confluence in 384-well plates (Corning, catalog# 353962) and infected with 5500 oocysts per well after they were induced for excystation as described above. Different concentrations of compounds were added 3 h post-infection and plates were incubated for another 45 h in a 5% CO2 incubator at 37 °C. Wells were then washed 3 times with PBS containing 111 mM D-galactose (PBS-D-gal), fixed with 4% paraformaldehyde (PFA) in PBS for 15 min at room temperature, permeabilized with 0.25% Triton X-100 for 10 min at 37 °C, washed 3 times with PBS with 0.1% Tween 20, and blocked with 4% bovine serum albumin (BSA) in PBS for 2 h at 37 °C or 4 °C overnight. Parasitophorous vacuoles were stained with 1.33 µg/mL of fluorescein-labeled Vicia villosa lectin (Vector Laboratories, catalog# FL-1231) diluted in 1% BSA in PBS with 0.1% Tween 20 for 1 h at 37 °C, followed by addition of Hoechst 33258 (AnaSpec, catalog# AS-83219) at 0.09 mM diluted in water for another 15 min at 37 °C. Wells were then washed 5 times with PBS containing 0.1% Tween 20. A Nikon Eclipse Ti2000 epifluorescence microscope with an automated stage was programmed using NIS-Elements Advanced Research software (Nikon, USA) to focus on the center of each well and take a 3 × 3 or 6 × 6 composite image using an EXi blue fluorescence microscopy camera (QImaging, Canada) with a 20 × objective (NA = 0.45). Nuclei and parasite images were separately exported as.tif files and analyzed using macros developed on the ImageJ platform (National Institutes of Health)[13].

[2] = system: C. parvum; experiment: Egress, motility, reinvasion assay (PV ratio); conditions: compound at EC90; for Egress and Reinvasion Assay: Mean PV ratios (19.5h:6h), Average: average of replicates; for Egress and Reinvasion Assay: Mean PV ratios (19.5h:6h), Replicate 1a: single replicate 1; for Egress and Reinvasion Assay: Mean PV ratios (19.5h:6h), Replicate 2a: single replicate 2; for Egress and Reinvasion Assay: Mean PV ratios (19.5h:6h), Replicate 3a: single replicate 3; for Egress and Reinvasion Assay: Mean PV ratios (19.5h:6h), Replicate 4a: single replicate 4; for Egress and Reinvasion Assay: Mean PV ratios (19.5h:6h), Replicate 5a: single replicate 5
Description: For quantification of parasitophorous vacuoles over time, HCT-8 cells were grown to greater than 90% confluence in 384-well plates and infected with 11,000 oocysts after triggering excystation.

[3] = Cryptosporidium parvum, HCT-8, read-out: Regular 3 to 48 h assay in vitro EC90, C. parvum in HCT-8 cells
[4] = read-out: Regular 3 to 48 h assay in vitro EC90, C. parvum in HCT-8 cells
[5] = Cryptosporidium parvum, read-out: Regular 3 to 48 h assay in vitro EC90, C. parvum in HCT-8 cells

Cc1cc(/C=C/c2ccc3cc(N(C)C)ccc3[n+]2C)c(C)n1-c1ccccc1 [Pyrvinium pamoate]
EC90 [1, 3]: 3210 nM
Egress and Reinvasion Assay: Mean PV ratios (19.5h:6h), Average [2]: 0.61
Egress and Reinvasion Assay: Mean PV ratios (19.5h:6h), Replicate 1a [2]: 0.97
Egress and Reinvasion Assay: Mean PV ratios (19.5h:6h), Replicate 2a [2]: 0.85
Egress and Reinvasion Assay: Mean PV ratios (19.5h:6h), Replicate 3a [2]: 0.33
Egress and Reinvasion Assay: Mean PV ratios (19.5h:6h), Replicate 4a [2]: 0.30

C[C@H]1CCC[C@H](C[C@H]2Cc3cc(O)cc(O)c3C(=O)O2)O1 [Cladosporin]
EC90 [1, 3]: 490 nM
Egress and Reinvasion Assay: Mean PV ratios (19.5h:6h), Average [2]: 0.68
Egress and Reinvasion Assay: Mean PV ratios (19.5h:6h), Replicate 1a [2]: 0.52
Egress and Reinvasion Assay: Mean PV ratios (19.5h:6h), Replicate 2a [2]: 0.83

O=C(Nc1ccc(Cl)c(Cl)c1)N1CCN(c2ccc3nncn3n2)CC1 [D-28]
EC90 [1, 4]: 1500 nM
Egress and Reinvasion Assay: Mean PV ratios (19.5h:6h), Average [2]: 1.28
Egress and Reinvasion Assay: Mean PV ratios (19.5h:6h), Replicate 1a [2]: 1.01
Egress and Reinvasion Assay: Mean PV ratios (19.5h:6h), Replicate 2a [2]: 1.19
Egress and Reinvasion Assay: Mean PV ratios (19.5h:6h), Replicate 3a [2]: 1.91
Egress and Reinvasion Assay: Mean PV ratios (19.5h:6h), Replicate 4a [2]: 1.01

CC(C)c1c(C(=O)Nc2ccccc2)c(-c2ccccc2)c(-c2ccc(F)cc2)n1CC[C@@H](O)C[C@@H](O)CC(=O)O [Atorvastatin]
EC90 [1, 3]: 2180 nM
Egress and Reinvasion Assay: Mean PV ratios (19.5h:6h), Average [2]: 1.88
Egress and Reinvasion Assay: Mean PV ratios (19.5h:6h), Replicate 1a [2]: 1.94
Egress and Reinvasion Assay: Mean PV ratios (19.5h:6h), Replicate 2a [2]: 1.82

CSc1ccccc1C(=O)Nc1nc(-c2ccccn2)cs1 [MMV001246]
EC90 [1, 4]: 5390 nM
Egress and Reinvasion Assay: Mean PV ratios (19.5h:6h), Average [2]: 0.43
Egress and Reinvasion Assay: Mean PV ratios (19.5h:6h), Replicate 1a [2]: 0.60
Egress and Reinvasion Assay: Mean PV ratios (19.5h:6h), Replicate 2a [2]: 0.25

CN(C)S(=O)(=O)c1ccc(C(=O)N2CCN(c3ccc4nncn4n3)CC2)cc1 [D-44]
EC90 [1, 4]: 11600 nM
Egress and Reinvasion Assay: Mean PV ratios (19.5h:6h), Average [2]: 2.21
Egress and Reinvasion Assay: Mean PV ratios (19.5h:6h), Replicate 1a [2]: 2.22
Egress and Reinvasion Assay: Mean PV ratios (19.5h:6h), Replicate 2a [2]: 2.32
Egress and Reinvasion Assay: Mean PV ratios (19.5h:6h), Replicate 3a [2]: 1.73
Egress and Reinvasion Assay: Mean PV ratios (19.5h:6h), Replicate 4a [2]: 2.75
Egress and Reinvasion Assay: Mean PV ratios (19.5h:6h), Replicate 5a [2]: 1.96
Egress and Reinvasion Assay: Mean PV ratios (19.5h:6h), Replicate 6a ([2]; single replicate 6): 2.29

c1ccc(CNc2nc(Nc3ccccc3)nc3ccccc23)cc1 [B-1]
0 - 48 h V. villosa lectin (asexual): Mean % Inhibition (parasites) ([1]; B-1 at log[MMV006169] (µM) 0.22): 61.21% and 81.70%
0 - 48 h V. villosa lectin (asexual): Mean % Inhibition (parasites) ([1]; B-1 at log[MMV006169] (µM) 0.52): 87.47% and 92.32%
0 - 48 h V. villosa lectin (asexual): Mean % Inhibition (parasites) ([1]; B-1 at log[MMV006169] (µM) 0.82): 91.12% and 90.37%
0 - 48 h V. villosa lectin (asexual): Mean % Inhibition (parasites) ([1]; B-1 at log[MMV006169] (µM) 1.00): 88.49% and 90.28%
0 - 48 h V. villosa lectin (asexual): Mean % Inhibition (parasites) ([1]; B-1 at log[MMV006169] (µM) -0.18): 5.34% and 39.84%
0 - 48 h V. villosa lectin (asexual): Mean % Inhibition (parasites) ([1]; B-1 at log[MMV006169] (µM) -0.65): -11.45% and 6.00%
0 - 48 h V. villosa lectin (asexual): Mean % Inhibition (parasites) ([1]; B-1 at log[MMV006169] (µM) -1.13): -7.55% and -4.41%
0 - 48 h V. villosa lectin (asexual): Mean % Inhibition (parasites) ([1]; B-1 at log[MMV006169] (µM) -1.61): -3.87% and -15.36%
0 - 48 h V. villosa lectin (asexual): Mean % Inhibition (parasites) ([1]; B-1 at log[MMV006169] (µM) -2.08): -14.75% and -13.18%
EC50 ([1]; read-out: 0 − 48 h V. villosa lectin (asexual): EC50, asexual growth assay, first 48 h, range in brackets): 1000 nM
EC90 [1, 4]: 2270 nM
Egress and Reinvasion Assay: Mean PV ratios (19.5h:6h), Average [2]: 1.58
Egress and Reinvasion Assay: Mean PV ratios (19.5h:6h), Replicate 1a [2]: 1.28
Egress and Reinvasion Assay: Mean PV ratios (19.5h:6h), Replicate 2a [2]: 1.59
Egress and Reinvasion Assay: Mean PV ratios (19.5h:6h), Replicate 3a [2]: 1.80
Egress and Reinvasion Assay: Mean PV ratios (19.5h:6h), Replicate 4a [2]: 1.65

COc1ccc(NC(=O)N2CCCCN3C(CN(C)C)C(c4ccc(C#Cc5ccccc5)cc4)C3C2)cc1 (stereo not drawn) [BRD7929]
EC90 [1, 4]: 150 nM
Egress and Reinvasion Assay: Mean PV ratios (19.5h:6h), Average [2]: 0.72
Egress and Reinvasion Assay: Mean PV ratios (19.5h:6h), Replicate 1a [2]: 0.46
Egress and Reinvasion Assay: Mean PV ratios (19.5h:6h), Replicate 2a [2]: 0.99
Egress and Reinvasion Assay: Mean PV ratios (19.5h:6h), Replicate 3a [2]: 0.98
Egress and Reinvasion Assay: Mean PV ratios (19.5h:6h), Replicate 4a [2]: 0.41
Egress and Reinvasion Assay: Mean PV ratios (19.5h:6h), Replicate 5a [2]: 0.78

Cc1cn(-c2cc(NC(=O)c3ccc(C)c(Nc4nccc(-c5cccnc5)n4)c3)cc(C(F)(F)F)c2)cn1 [Nilotinib]
EC90 [1, 5]: 16500 nM
Egress and Reinvasion Assay: Mean PV ratios (19.5h:6h), Average [2]: 1.05
Egress and Reinvasion Assay: Mean PV ratios (19.5h:6h), Replicate 1a [2]: 1.50
Egress and Reinvasion Assay: Mean PV ratios (19.5h:6h), Replicate 2a [2]: 1.54
Egress and Reinvasion Assay: Mean PV ratios (19.5h:6h), Replicate 3a [2]: 0.60
Egress and Reinvasion Assay: Mean PV ratios (19.5h:6h), Replicate 4a [2]: 0.54

Cc1cccc(-n2ncc3c(=O)[nH]c(-n4nc(C)cc4NC(=O)C4CC4)nc32)c1 [C-4]
EC90 [1, 4]: 5170 nM
Egress and Reinvasion Assay: Mean PV ratios (19.5h:6h), Average [2]: 0.48
Egress and Reinvasion Assay: Mean PV ratios (19.5h:6h), Replicate 1a [2]: 0.49
Egress and Reinvasion Assay: Mean PV ratios (19.5h:6h), Replicate 2a [2]: 0.48

O=c1[nH]c(=O)n([C@H]2C[C@H](O)[C@@H](CO)O2)cc1F [Floxuridine]
EC90 [1, 5]: 140 nM
Egress and Reinvasion Assay: Mean PV ratios (19.5h:6h), Average [2]: 0.74
Egress and Reinvasion Assay: Mean PV ratios (19.5h:6h), Replicate 1a [2]: 0.67
Egress and Reinvasion Assay: Mean PV ratios (19.5h:6h), Replicate 2a [2]: 0.80

[H]/N=C(/NCCCCC)N/N=C/c1c[nH]c2ccc(OC)cc12 [Tegaserod]
EC90 [1, 3]: 10300 nM
Egress and Reinvasion Assay: Mean PV ratios (19.5h:6h), Average [2]: 1.01
Egress and Reinvasion Assay: Mean PV ratios (19.5h:6h), Replicate 1a [2]: 0.96
Egress and Reinvasion Assay: Mean PV ratios (19.5h:6h), Replicate 2a [2]: 1.06

Oc1c(C(Nc2ccccn2)c2cccc(Oc3ccccc3)c2)ccc2cccnc12 (stereo not drawn) [A-2]
EC90 [1, 4]: 1340 nM
Egress and Reinvasion Assay: Mean PV ratios (19.5h:6h), Average [2]: 0.69
Egress and Reinvasion Assay: Mean PV ratios (19.5h:6h), Replicate 1a [2]: 0.67
Egress and Reinvasion Assay: Mean PV ratios (19.5h:6h), Replicate 2a [2]: 0.71

CC(=NOCCN)c1cccc(C(C)(C)NC(=O)Nc2ccc(Cl)c(C(F)(F)F)c2)c1 [P257]
EC90 [1, 4]: 34300 nM
Egress and Reinvasion Assay: Mean PV ratios (19.5h:6h), Average [2]: 0.84
Egress and Reinvasion Assay: Mean PV ratios (19.5h:6h), Replicate 1a [2]: 1.06
Egress and Reinvasion Assay: Mean PV ratios (19.5h:6h), Replicate 2a [2]: 0.97
Egress and Reinvasion Assay: Mean PV ratios (19.5h:6h), Replicate 3a [2]: 0.68
Egress and Reinvasion Assay: Mean PV ratios (19.5h:6h), Replicate 4a [2]: 0.65

O=C(Nc1nc(-c2ccccn2)cs1)c1ccccc1Br [MMV665909]
EC90 [1, 4]: 6840 nM
Egress and Reinvasion Assay: Mean PV ratios (19.5h:6h), Average [2]: 0.41
Egress and Reinvasion Assay: Mean PV ratios (19.5h:6h), Replicate 1a [2]: 0.61
Egress and Reinvasion Assay: Mean PV ratios (19.5h:6h), Replicate 2a [2]: 0.21
